Experiment: Heat-induced release of drug surrogate (alcohol 11 or amine 12) from linkers in methanol, HPLC quantification
Assay type: physicochemical
Details: for % release after heating (55° C.) at time (h) 0.25 / % release after heating (55° C.) at time (h) 0.5 / % release after heating (55° C.) at time (h) 0.75 / % release after heating (55° C.) at time (h) 1 / % release after heating (55° C.) at time (h) 2 / % release after heating (55° C.) at time (h) 3 / % release after heating (55° C.) at time (h) 24 h / % release at rt, 3.5 h: release of alcohol 11, mean ± SD, n = 3; for % release after heating (55° C.) at time (h) 0.25 / % release after heating (55° C.) at time (h) 0.5 / % release after heating (55° C.) at time (h) 0.75 / % release after heating (55° C.) at time (h) 1 / % release after heating (55° C.) at time (h) 2 / % release after heating (55° C.) at time (h) 3 / % release after heating (55° C.) at time (h) 24 h / Heat-induced release of 11 or 12 (result in words, spans all time columns): methanol ca. 0.01 M; for % release after heating (55° C.) at time (h) 0.25: 0.25 h; for % release after heating (55° C.) at time (h) 0.5: 0.5 h; for % release after heating (55° C.) at time (h) 0.75: 0.75 h; for % release after heating (55° C.) at time (h) 1: 1 h; for % release after heating (55° C.) at time (h) 2: 2 h; for % release after heating (55° C.) at time (h) 3: 3 h; for % release at rt, 3.5 h: room temperature control; for Heat-induced release of 11 or 12 (result in words, spans all time columns): 55° C. up to 24 h and rt 3.5 h
Protocol: Methanol (MeOH) was used as a solvent to provide a protic solvent capable of hydrogen bonding. The amine-containing linker compounds, formed on Boc-deprotection with basic work-up (compounds 4.1-3, 8.1-2, 9, 10), were diluted with MeOH (2 mL, ˜0.01 M). An aliquot was removed to serve as a room temperature control. Heat was applied to the MeOH solutions using an oil bath. The temperature was set at 55° C., and the solutions were heated for a total of 24 h. Aliquots were taken at t=0.25, 0.50, 0.75, 1, 2, 3, and 24 h into the reaction. On sampling, the aliquots were, immediately stored at −5° C. On completion of the experiment, the samples were warmed to room temperature, filtered and dried under reduced pressure (3.5 h duration) and then returned to −5° C. Each sample was then removed individually from the freezer and diluted with 400 μL CH2Cl2 before injecting 50 μL into an HPLC fitted with a normal phase silica column (Waters Nova-Pak HR Silica, 6 μm, 60 Å, 3.9×300 mm prep column; 1% MeOH in CH2Cl2 with 0.1% Et3N). HPLC analysis enabled quantification of released 11 or 12. Schemes 3 and 4 depict the intramolecular cyclization processes to release the drug surrogate (e.g., 11 or 12). […] FIG. 12 graphically illustrates the heat-induced release of alcohol 11 (Table 1). The substrates were heated as methanol solutions (ca. 0.01 M) at 55° C. for the indicated times as described above.

| SMILES | % release after heating (55° C.) at time (h) 0.25 | % release after heating (55° C.) at time (h) 0.5 | % release after heating (55° C.) at time (h) 0.75 | % release after heating (55° C.) at time (h) 1 | % release after heating (55° C.) at time (h) 2 | % release after heating (55° C.) at time (h) 3 | % release after heating (55° C.) at time (h) 24 h | % release at rt, 3.5 h | Heat-induced release of 11 or 12 (result in words, spans all time columns) |
| --- | --- | --- | --- | --- | --- | --- | --- | --- | --- |
| C=CCNCCCOC(=O)OCCc1c2ccccc2cc2ccccc12 [Compound 8.2, 3-(allylamino)propyl(2-(anthracen-9-yl)ethyl) carbonate] | 12.0 ± 0.8% | 14.1 ± 0.7% | 16.4 ± 1.0% | 18.0 ± 0.7% | 24.8 ± 1.1% | 29.0 ± 1.0% | 62.1 ± 5.6% | 9.6 ± 1.1% | – |
| C=CCNCCOC(=O)OCCc1c2ccccc2cc2ccccc12 [Compound 8.1, 2-(allylamino)ethyl(2-(anthracen-9-yl)ethyl) carbonate] | 23.5 ± 1.9% | 28.9 ± 1.7% | 32.4 ± 4.0% | 36.7 ± 4.8% | 48.3 ± 5.7% | 57.0 ± 6.9% | 68.9 ± 3.0% | 18.8 ± 2.3% | – |
| C=CCNCCCC(=O)OCCc1c2ccccc2cc2ccccc12 [Compound 4.1, 2-(anthracen-9-yl)ethyl 4-(allylamino)butanoate] | 24.6 ± 3.1% | 29.2 ± 1.7% | 33.4 ± 2.5% | 36.6 ± 2.6% | 44.4 ± 3.7% | 50.2 ± 4.2% | 94.0 ± 1.8% | 20.2 ± 3.1% | – |
| C=CCNCCCCCC(=O)OCCc1c2ccccc2cc2ccccc12 [Compound 4.3, 2-(anthracen-9-yl)ethyl 6-(allylamino)hexanoate] | 2.1 ± 1.6% | 1.8 ± 1.9% | 2.1 ± 2.2% | 2.1 ± 1.8% | 3.1 ± 2.9% | 3.6 ± 3.0% | 10.4 ± 3.8% | 1.7 ± 2.0% | – |
| C=CCNCCC(C)(C)COC(=O)OCCc1c2ccccc2cc2ccccc12 [Compound 23, 4-(allylamino)-2,2-dimethylbutyl(2-(anthracen-9-yl)ethyl) carbonate] | 1.8 ± 0.4% | 2.3 ± 0.5% | 2.9 ± 0.1% | 4.0 ± 0.3% | 5.7 ± 1.0% | 7.6 ± 0.3% | 36.6 ± 0.3% | 0.7 ± 0.1% | – |
| C=CCNCCCC(=O)NCCc1c2ccccc2cc2ccccc12 [Compound 9, 4-(allylamino)-N-(2-(anthracen-9-yl)ethyl)butanamide] | – | – | – | – | – | – | – | – | no reaction |
| C=CCNCCC(C)(C)CCC(=O)OCCc1c2ccccc2cc2ccccc12 [Compound 20, 2-(anthracen-9-yl)ethyl 6-(allylamino)-4,4-dimethylhexanoate] | 2.0 ± 0.1% | 2.2 ± 0.1% | 2.7 ± 0.1% | 3.3 ± 0.4% | 4.1 ± 0.3% | 5.2 ± 0.8% | 24.7 ± 3.9% | 1.8 ± 0.2% | – |
| C=CCNCCCCC(=O)OCCc1c2ccccc2cc2ccccc12 [Compound 4.2, 2-(anthracen-9-yl)ethyl 5-(allylamino)pentanoate] | 20.9 ± 1.9% | 21.6 ± 3.5% | 23.0 ± 3.0% | 25.0 ± 2.1% | 30.5 ± 1.3% | 36.5 ± 1.2% | 75.7 ± 3.2% | 17.0 ± 4.5% | – |
| C=CCNCCNC(=O)OCCc1c2ccccc2cc2ccccc12 [Compound 10, 2-(anthracen-9-yl)ethyl(2-(allylamino)ethyl)carbamate] | – | – | – | – | – | – | – | – | no reaction |

— US9849193B2, “Nanoparticles for drug delivery” (University of Louisville Research Foundation, Inc., priority 2013, dated 2017)
